Measurements taken from PubChem BioAssay (NCI).
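Assay format: 96-well plates, 48-hour exposure. The concentration for 50% growth inhibition is given as GI50. TGI is the concentration that stops growth completely.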 Where a SMILES comes first, the peptide text is derived from it. The star is where a group is joined. Boc = CC(C)(C)OC(=O)*; OBn = c1ccc(CO*)cc1

Columns and labels:
Test in all cases: NCI tumour cell line growth inhibition, 48 h
[1] = tested on: HOP-62 NSCLC
[2] = tested on: SW-620 colon
[3] = tested on: M14 melanoma
[4] = tested on: HCT-15 colon
[5] = tested on: MDA-MB-435
[6] = tested on: KM12 colon
[7] = tested on: TK-10 renal
[8] = tested on: HCT-116 colon
[9] = tested on: A498 renal

Compound	TGI [1] [µM]	TGI [2] [µM]	TGI [3] [µM]	TGI [4] [µM]	TGI [5] [µM]	TGI [6] [µM]	TGI [7] [µM]	TGI [8] [µM]	TGI [9] [µM]	GI50 [1] [µM]	GI50 [2] [µM]	GI50 [3] [µM]	GI50 [4] [µM]	GI50 [5] [µM]	GI50 [6] [µM]	GI50 [7] [µM]	GI50 [8] [µM]	GI50 [9] [µM]
O=S(=O)(/N=C(\NO)Nc1ccc(Cl)cc1)C1CC=C(c2ccon2)S1 (stereo unspecified)	> 100	> 100	> 100	> 100	> 100	> 100	> 100	> 100	> 75.9									
CC(=O)OC1[C@H](n2ccnc2)C[C@H]2[C@@H]3CC=C4CC(N5CCCC5)CC[C@]4(C)[C@H]3CC[C@]12C (stereo partly specified)		> 100	61.6	> 100	> 100	> 100	> 100	> 100	> 100									
NC(=O)SCC(=O)Nc1ccc2ncccc2c1	> 100	> 100	> 100	> 100	> 100	> 100	> 100	> 100	> 100									
Cc1ccc([N+](=O)[O-])cc1S(=O)(=O)Nc1ccc(C2=NN(S(=O)(=O)c3cc([N+](=O)[O-])ccc3C)C(c3ccco3)C2)cc1 (stereo unspecified)	> 100	> 100	> 100	> 100	> 100	> 100		> 100										
Cc1nc2cccc([N+](=O)[O-])c2n1CCCN(C)C	> 100	> 100	> 100	> 100	> 100	> 100	> 100	> 100	> 100									
Oc1ccccc1-c1nn2c(CCCCCCCCc3nnc4sc(-c5ccccc5O)nn34)nnc2s1	> 92.2	> 100	> 77.7	> 100	> 100	> 100	> 100	> 71.2	> 89									
O=P1(Oc2ccccc2)NCc2ncccc2O1 (stereo unspecified)	> 100	> 100	> 100	> 100	> 100	> 100		> 100	> 100									
O=C1C=C2CC[C@H]3[C@@H]4CC[C@H](Oc5c6ccccc6nc6ccccc56)[C@H]4CC[C@@H]3[C@H]2CC1	> 100	> 100	> 100	> 100	> 100	> 100	> 100	> 100										
Cc1cc(C)c2c(=O)cc(-c3ccc4ccccc4c3)[nH]c2n1	> 93.8	> 100	67.5	> 100	12	> 52.7	> 100	> 69.9	24.1									
COC(=O)C1=COc2c(n(C)c3ccccc23)-c2ccccc21	> 100	> 100	> 100	> 100	> 100	> 100	> 100	> 100	> 100									
CC(C)CC(NC(=O)C(Cc1ccccc1)NC(=O)C(Cc1ccccc1)NC(=O)OC(C)(C)C)C(=O)OCc1ccccc1 (stereo not drawn) (Boc-Phe-Phe-Leu-OBn; configuration not given here)	> 100	> 100	> 100	> 100	> 100	> 100	> 100	> 100	> 100									
O=C1CCCC2=C1CC1=C(CCCC1=O)N2c1cccc([N+](=O)[O-])c1		> 100	> 100	> 100		> 100	> 100		> 100									
Cc1nnc([C@@]2(C)CC[C@H]3[C@@H](CCC4=CC(=O)CC[C@@]43C)[C@@H]2CC#N)o1	> 100	> 100	> 100	> 100	> 100	> 100	> 100	> 100	> 100									
O=C(c1ccccc1)c1nn(-c2ccccc2)c2nc3nc(-c4ccccc4)cc(=O)n3nc12	> 100	> 100	81.4	> 100	48.3	82.1	> 100	28	> 100	38	33.1	27.3	36.3	18.1	28.3	40.3	14.6	44.8
COc1ccc(/C=C(/c2ccccc2)c2c(C)cc(C)c(/C(=C\c3ccc(OC)cc3)c3ccccc3)c2N=Nc2cc(C)cc(C)c2)cc1	> 100	> 100	> 100	> 100	> 62.2	> 71.9	> 74.4	> 87.8	> 100									
CC(=O)C1=C(C)N(c2ccccc2)C2(O)C=CC(=O)C3=C(O)c4ccccc4C(=O)C312 (stereo unspecified)	72.1	> 100	58.8	> 100	5.19	40.3	46.2	> 100	39.4									
O=[N+]([O-])c1ccc(O)c(C=NCC2CCCN3CCCCC23)c1 (stereo unspecified)	> 100		53.2	> 100		> 100	> 100	> 100										
C[N+](C)(C)C(C1=CCCC1=O)c1ccccc1 (stereo unspecified)	80.2	70.4	> 100	41.5	72.7	49.1	> 100	32.1	> 100									
O=C(CCc1ccc(O)cc1)NCCCNC(=O)CCc1ccc(O)cc1	> 100	> 100	> 100	> 100	> 100	> 100		> 100	> 100									
CC[C@H]1C=CCC[C@@]2(C[C@@H]3CC[C@@H]4[C@H](C(=O)OCCCCCCCCCCCCCCCC(=O)N(CCCNC(C)=O)C[C@H](CCNC(C)=O)OC(C)=O)[C@]5(CCC[C@@H](C)O5)NC(=[N+]34)N2)O1	1.84	2.14	0.34	2.78	0.545	1.75	2.07	1.24	1.09									
CC(=O)OCCOCCN1CCN(c2c(O)c3c(c(O)c2Cl)C(=O)C=CC3=O)CC1	7.1	0.475	1.48	1.23	1.95	4.92	1.62	0.72	3.56									
